According to patent US6448239B1, “Peroxynitrite decomposition catalysts and methods of use thereof” (Trustees of Princeton University, priority 1999, dated 2002):

How the values were obtained:
calf thymus DNA (CT-DNA) = assay: Calf thymus-DNA titration (UV-visible spectrum); assay type: binding
Protocol: A 5 μM solution of 4-T(CX)PyP was prepared in 10 mM tris buffer+1 mM EDTA (pH=8.0). To 2 mL of this solution in a quartz cuvette, 1 μL aliquots of a 1.89 mM solution of calf thymus DNA (CT-DNA) in 10 mM tris+1 mM EDTA were added. The concentration of CT-DNA was determined by UV-visible spectrum. After each addition, the cuvette was vortexed to ensure good mixing, and the UV-visible spectrum was recorded. […] Several intermediate spectra were omitted for clarity.
The porphyrin 2-T(CX)PyP was titrated in an analogous way to 4-T(CX)PyP, as described above. […] Presumably, the ortho carboxamide groups provide sufficient steric bulk to prevent association of the positively-charged pyridyl groups with the negatively-charged sugar phosphate backbone. Even when CT-DNA was added in large excess to the solution of porphyrin, a redshift of only […] was observed.

plasmid pBR322 = assay: Cleavage of plasmid DNA with manganese pyridyl porphyrins, agarose gel; conditions: 1 mM Mn porphyrin, 50 μg/mL plasmid, 10 mM or 25 mM oxone, 5 min
Description: Three forms of plasmid DNA are expected when Mn porphyrins interact with and cleave DNA, and they can be easily separated on an agarose gel. Uncleaved, supercoiled plasmid (Form I) will show the greatest mobility. In the event of a nick in the DNA, the supercoils will relax, and the open circular form of the plasmnid (Form II) will appear. Further oxidation will cleave the second strand of DNA as well, and leads to a linear form (Form III.) The relative electrophoretic mobilities are as follows: I>III>II.
Two concentrations of oxidant were used: 10 mM and 25 mM. All experiments were performed in 40 mM tris buffer+100 mM NaCl. […] Before reaction, porphyrin was allowed to incubate with plasmid for 30 min.
A typical reaction was performed as follows: to a solution of 1 mM manganese porphyrin and 50 μg/mL plasmid in buffer was added enough oxone to make a final concentration of 10 mM or 25 mM. (Volume of the entire reaction was 20 μL.) The reaction mixture was vortexed, then allowed to react for 5 min. HEPES buffer (100 mM) was added to stop the reaction.
Each sample was electrophoresed on a 1% agarose slab horizontal gel at 90V for 1 h at 24° C. in 40 mM tris-acetate (TAE) and 1 mM ETDA buffer. The agarose gel contained ethidium bromide (1 μg/mL) so that the lanes could be visualized by UV-vis, and the finished gel was photographed under UV illumination. Lanes 1-4 were run at 10 mM oxone, and lanes 5-8 were run at 25 mM oxone. The control lanes, C1 and C2, contained 10 mM and 25 mM oxone, respectively, but no porphyrin. […] The lane assignments include the following: lane 1: Mn 4-T(CX)PyP, lane 2: Mn 2-T(CX)PyP; lane 3, Mn 2-T(PEG3)PyP; lane 4: Mn 4-TMPyP; lane C1: plasmid+10 mM oxone; lane C2: Plasmid+25 mM oxone

## 4-Tetrakis(carboxamide)pyridyl Porphyrin [4-T(CX)PyP]
Calf thymus DNA (CT-DNA); 5 μM porphyrin, 10 mM tris + 1 mM EDTA pH=8.0
  redshift of Soret band (Δλmax): 12 nm
Calf thymus DNA (CT-DNA); calculated from the titration
  binding constant to DNA: 7.99×10^6
Calf thymus DNA (CT-DNA); from change in Soret band
  association with DNA (in words): both porphyrin intercalation into DNA and outside stacking of porphyrin along the DNA backbone

## Mn(III) 2-tetrakis(carboxamide)pyridyl porphyrin [Mn 2-T(CX)PyP]
Plasmid pBR322
  appearance of linear form of DNA (Form III): does not appear at all

## Mn(III) 2-tetrakis(triethylene glycol monomethyl ether)pyridyl porphyrin [Mn 2-T(PEG3)PyP]
Plasmid pBR322
  appearance of linear form of DNA (Form III): does not appear at all

## Mn(III) 4-tetrakis(carboxamide)pyridyl porphyrin [Mn 4-T(CX)PyP]
Plasmid pBR322
  degree of plasmid cleavage: greatest degree of plasmid cleavage
